The target of test [1] is T1, Human V1b receptor (Homo sapiens, UniProt P47901).
T1 sequence (P47901 1-424): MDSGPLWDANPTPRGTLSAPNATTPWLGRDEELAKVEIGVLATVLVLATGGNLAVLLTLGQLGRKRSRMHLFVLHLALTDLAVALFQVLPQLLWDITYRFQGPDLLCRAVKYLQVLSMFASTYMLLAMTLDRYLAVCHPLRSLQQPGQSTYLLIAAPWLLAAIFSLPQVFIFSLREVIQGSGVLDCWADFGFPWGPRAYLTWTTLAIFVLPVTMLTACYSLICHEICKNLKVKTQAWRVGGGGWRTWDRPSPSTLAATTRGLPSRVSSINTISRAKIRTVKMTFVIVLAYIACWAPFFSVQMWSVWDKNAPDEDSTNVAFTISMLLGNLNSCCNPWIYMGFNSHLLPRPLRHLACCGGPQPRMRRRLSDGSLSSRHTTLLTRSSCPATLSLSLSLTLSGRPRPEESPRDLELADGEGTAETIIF
Put plainly: Measurement of V1b receptor antagonistic activity (AVP-induced fluorescence, Fluo-4, FDSS). It is filed as cell-based. Details: expressed in transfected cells. As for the experimental part: Measurement of V1b Receptor Antagonistic Activity
CHO cells (ATCC) stably expressing human V1b receptor were cultured in Ham's F-12 medium (containing 10% FBS and 0.5 mg/mL Geneticin). The cells were seeded the day before the test at 20,000 cells/well in a 96-well poly-D-lysine coated black plate. On the day of the test, the culture medium was removed, and a loading solution (1×HBSS, 10 mmol/L HEPES, 0.1% bovine serum albumin, 1.25 mmol/L Probenecid, 0.02% Pluronic F-127, 1.5 μmol/L Fluo-4-AM, pH 7.4) was added to each well, followed by incubation in a CO2 incubator for 1 hour. After the incubation, the loading solution was removed. A test solution (1×HBSS, 10 mmol/L HEPES, 0.1% bovine serum albumin, 1.25 mmol/L Probenecid, pH 7.4) containing any one of test compounds was added to wells, followed by incubation in a CO2 incubator for 30 minutes. The test compound was serially diluted with DMSO so as to be assayed at a final concentration of 0.1 nmol/L to 1 μmol/L. After the incubation, measurement of fluorescence intensity levels and addition of AVP were performed with Functional Drug Screening System (FDSS, Hamamatsu Photonics K.K.). […] The fluorescence level in the well not containing any test compound and AVP was defined as 0%, and the fluorescence level in the well not containing any test compound but containing AVP was defined as 100%. A dose-response curve was plotted from fluorescence levels after the addition of AVP in the presence of a test compound at various concentrations, and the 50% inhibitory concentration (IC50 value) of the compound was calculated.

Test [2] has as its target T1, Human V1b receptor. In words: Binding test for V1b receptor ([3H]AVP displacement, crude membrane preparation). Also on record: expressed in transfected cells; host or cells: 293FT cells (Invitrogen), transient expression; crude membrane preparation. The conditions noted are these: [3H]AVP 0.4 to 1 nmol/L; membranes of 293FT cells transiently expressing human V1b receptor; room temperature, 60 minutes. Put shortly: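 Crude membranes from 293FT cells transiently expressing human V1b, in 50 mmol/L Tris-HCl pH 7.4 with 10 mmol/L MgCl2 and 0.1% BSA, incubated with compound (0.01 nmol/L–1 μmol/L) and [3H]AVP (0.4–1 nmol/L) for 60 min at room temperature. Filter-bound radioactivity counted; 10 μmol/L unlabeled AVP defined 0%. IC50 from dose-response curve.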

Broadly, the IC50 is the point on the concentration scale where inhibition reaches its midpoint. A high value points to weaker potency in that assay. `CC(C)NC(=O)Cn1c(-c2ccc(F)c(Cl)c2)nn(-c2ccc(CCN3C4CCC3CC(O)C4)cc2)c1=O` (centres unmarked) [Da-6, 2-[3-(3-Chloro-4-fluorophenyl)-1-{4-[2-(3-hydroxy-8-azabicyclo[3.2.1]oct-8-yl)ethyl]phenyl}-5-oxo-1,5-dihydro-4H-1,2,4-triazol-4-yl]-N-(propan-2-yl)acetamide]: the IC50 at Human V1b receptor [1] amounted to 12 nM; on Human V1b receptor [2], 4.4 nM.

Values taken from patent publication US9193695B2, “1, 2, 4-triazolone derivative and use thereof as an antagonist on the arginine-vasopressin 1B receptor” (TAISHO PHARMACEUTICAL CO., LTD., priority 2010, dated 2015).
